Laboratory results from patent publication US20150111737A1, “SYNERGISTIC PESTICIDAL COMPOSITIONS AND RELATED METHODS” (Dow AgroSciences LLC, priority 2013, published 2015).

System: diamondback moth, Plutella xylostella
Assay: Cabbage leaf bioassay (track sprayer) against second instar diamondback moth; synergy judged by Colby's equation
Format: in vivo
Settings: single active, dose rate 0.0025 weight %, 400 L/Ha spray
Text: The method described in Colby S. R., “Calculating Synergistic and Antagonistic Responses of Herbicide Combinations,” Weeds, 1967, 15, 20-22 was used to determine an existence of synergic effect between the juvenile hormone mimicking compound and the pesticide (I), (II), or any agriculturally acceptable salt thereof in the formulated pesticidal composition. In this method, the percent insect control of the formulated pesticidal composition as observed in the study was compared to the “expected” percent control (E) as calculated by equation (1) (hereinafter “Colby's equation”) below: […]
Bioassays were performed for different active compounds. Cabbage plants with about two to three new-growth-true leaf stage were treated with different active compounds using a track sprayer application at 400 L/Ha spray volume. Three second instar diamondback moths, Plutella xylostella, were infested onto each leaf disc. The percent control of the pesticidal composition against diamondback moth, Plutella xylostella, was determined as the “Observed” action, and compared to those obtained by using about 0.0025 weight % of Compound II, and using about 0.000391 weight % of pyriproxyfen alone. The “Colby's Expected Action” was calculated using Colby's equation as discussed previously. […]
The percent control may be determined some time after treatment.

SMILES	% Control Three Days After Treatment [%]
CCN(C(=O)CCSCCC(F)(F)F)c1cn(-c2cccnc2)nc1Cl [Compound I, N-(3-chloro-1-(pyridin-3-yl)-1H-pyrazol-4-yl)-N-ethyl-3-((3,3,3-trifluoropropyl)thio)propanamide]	0
CCN(C(=O)CC[S+]([O-])CCC(F)(F)F)c1cn(-c2cccnc2)nc1Cl (centres unmarked) [Compound II, N-(3-chloro-1-(pyridin-3-yl)-1H-pyrazol-4-yl)-N-ethyl-3-((3,3,3-trifluoropropyl)sulfinyl)propanamide]	0
